Assay results published in patent US12186318B2, “Pharmaceutical composition for preventing or treating cancer comprising KSP inhibitor and mitosis inhibitor” (KOREA INSTITUTE OF SCIENCE AND TECHNOLOGY, priority 2020, dated 2025).

Assays:
[1] = test system: Kif15 gene; test: Kif15 expression at the gene level (qRT-PCR) in HeyA8-MDR cells; format: cell-based; conditions: 50 nM siKSP and/or 2000 nM PTX, 48 hours
Procedure: Subsequently, total RNA was obtained respectively from the recovered cells using an RNeasy mini kit (Qiagen, US), cDNA was synthesized from the obtained total RNA using a TOPscript cDNA synthesis kit (Enzynomics, Korea), and PCR was performed using a StepOne qRT-PCR system (Thermo Fisher scientific) and primers specific to a Kif15 gene (SEQ ID NOS: 7 and 8) or primers specific to a β-actin gene (SEQ ID NOS: 5 and 6).
Thereafter, the levels of the amplified products obtained from the PCR were measured, and the measured levels were standardized with respect to an expression amount of β-actin, and then relative levels of Kif15 mRNA was calculated (FIG. 2C).

[2] = test system: Kif15 protein; test: Kif15 expression at the protein level (western blot) in HeyA8-MDR cells; format: cell-based; conditions: 50 nM siKSP and/or 2000 nM PTX, 48 hours
Procedure: The cells recovered in Example 3-3 above were analyzed by western blotting using an anti-Kif15 antibody (FIG. 2D).

[3] = test system: HeyA8-MDR cells; test: Anti-cancer activity, MTT cell viability and Bliss independence; format: cell-based; conditions: single agent, 0 to 200 nM liposome or 0 to 2000 nM paclitaxel, 48 hours
Procedure: The recovered cells were cultured in a fresh medium supplemented with a 10% MTT solution for 3 hours and formazan crystals generated by treatment with a Sorensen's glycine buffer and DMSO was dissolved therein. Thereafter, the absorbance thereof was measured at 570 nm and the cell viability was calculated using the same (FIG. 2G).
The cell viabilities of the cells were compared (FIG. 2H).
In addition, in order to quantitatively analyze a reduction level of the cell viability, the measured absorbance was applied to the following equation to calculate an expected inhibition level of cancer cells, and the obtained expected inhibition level was compared with an observed inhibition level of the cancer cells (FIGS. 2I to 2K). […] Expected inhibition level=FsiKSP-liposome+FPTX−(FsiKSP-liposome×FPTX)
Thereafter, cell viability inhibition levels and expected inhibition levels calculated therefrom were compared with each other (FIG. 2L). […] Expected Inhibition Level=Fa+Fb−(Fa×Fb)

[4] = test system: HeyA8-MDR cancer cells; test: Anti-cancer effect in tumor mouse model; format: in vivo, BALB/c nude mouse; conditions: 26 days after injection
Procedure: First, HeyA8-MDR cancer cells (1×10^8) were injected into the left thigh of a 5-week-old female BALB/c nude mouse, and then left until cancer tissue grew to a volume of about 50 mm3 to prepare 20 tumor mouse xenograft models.
Subsequently, at 26 days after injection of each of the samples, tumor tissue was excised from each tumor mouse model and weighed (FIG. 4B).
In addition, at 26 days after injection of each of the samples, tumor tissue was excised from each tumor mouse model, and tumor growth inhibition (TGI) rate was measured (FIG. 4C).

[5] = test system: HeyA8-MDR cancer cells; test: TUNEL assay on tumor tissue of tumor mouse model; format: in vivo, BALB/c nude mouse
Excerpt: The tumor tissue of the respective groups excised in Example 4-2 above was subjected to a TUNEL assay to identify the level of apoptosis in the tumor tissue (FIG. 4I).

[6] = test system: Kif15 mRNA; test: Kif15 mRNA level in drug-resistant PDX model; format: in vivo, mouse; conditions: relative to control
Procedure: The levels of Kif15 mRNA expressed in tumor tissue of the respective groups excised in Example 4-4-2 above were measured by qRT-PCR as an application method of that of Example 3-3 (FIG. 5E).

[7] = test system: drug-resistant PDX model; test: TUNEL assay on tumor-implanted kidney tissue of drug-resistant PDX model; format: in vivo, mouse
Excerpt: The tumor-implanted kidney tissue of the respective groups excised in Example 4-4-2 above was subjected to a TUNEL assay to identify the level of apoptosis in the tumor-implanted kidney tissue (FIG. 5H).

## CC(=O)O[C@H]1C(=O)[C@@]2(C)[C@H]([C@H](OC(=O)c3ccccc3)[C@]3(O)C[C@H](OC(=O)[C@H](O)[C@@H](NC(=O)c4ccccc4)c4ccccc4)C(C)=C1C3(C)C)[C@]1(OC(C)=O)CO[C@@H]1C[C@@H]2O [paclitaxel]
[1]
  expression level of the Kif15 gene: inhibited
[2]
  level of the Kif15 protein: decreased
[3]
  cell viability with increasing concentration: decreases
[4]
  tumor growth inhibition (TGI) rate: about 13.1%
[5]
  apoptosis in tumor tissue (TUNEL): not induced or induced in a low level
[6]
  Kif15 mRNA level in tumor-implanted kidney tissue: decreased
[7]
  apoptosis in tumor-implanted kidney tissue (TUNEL): not induced or induced in a low level
